Source: patent publication US11518764B2, “Substituted heteroaryls as inhibitors of the BCL6 BTB domain protein-protein interaction” (Ontario Institute for Cancer Research (OICR), priority 2018, dated 2022)
Like-named read-outs stand apart in the source and are kept apart here.

Key:
Karpas422 cells = assay: Tumor cell growth inhibition assay; format: cell-based
Protocol: Tumor Cell Growth inhibition Assay
Karpas422 cells were seeded into a 96-well plate at 2,000 cells/well in 150 ul medium (Alpha-MEM containing 10% FBS, […] Normocin, and […] Gentamycin, Invitrogen). A HP D300 digital dispenser was used to dose cells with DMSO or test compounds across a 10-point range of concentrations (high dose of 5 uM), and cultures were grown in a humidified 5% CO2 incubator at 37° C. After six days, plates were removed from incubator and equilibrated to room temperature. An equal volume of ATPlite assay reagent was added to each well, and samples were processed according to manufacturer's instructions (Perkin Elmer). Luminescent signal was measured using an Envision plate reader equipped with a US-Luminescence detector.

BCL6 BTB domain = BCL6 BTB domain (Homo sapiens (Human), UniProt P41182); assay: Surface plasmon resonance (SPR) assay; format: binding; details: BCL6 BTB domain captured on SA chip, single cycle kinetics
[1] = test system: BCL6 reporter construct (3xBCL6-TK-Luc) in SuDHL4 cells; assay: Cell-based luciferase assay
Protocol: Cell-Based Luciferase Assay
A BCL6 reporter construct containing three copies of the consensus BCL6 binding site, the TK promoter, and the firefly luciferase gene was stably expressed in SuDHL4 cells after lentivirus infection and selection with Blasticidin. SuDHL4-3×BCL6-TK-Luc cells were seeded into a Viewplate 384-well assay dish at 15,000 cells/well in 25 ul medium (Alpha-MEM high glucose containing 10% FBS, 25 mM HEPES, […] GlutaMAX, 100 ug/ml Normocin, and […] Gentamycin, Invitrogen). A HP D300 digital dispenser was used to dose cells with DMSO or test compounds across a 10-point range of concentrations (high dose of 10 uM), and cultures were grown in a humidified 5% CO2 incubator at 37° C. After two days, plates were removed from the incubator and equilibrated to room temperature. An equal volume of neolite reporter gene assay reagent was added to each well, and samples were processed according to manufacturer's instructions (Perkin Elmer). Luminescent signal was measured using an Envision plate reader equipped with a US-Luminescence detector.

[2] = Homo sapiens, KARPAS-422, 144 h, read-out: Tumor Growth Inhibition in Karpas-422 (IC50, uM), Karpas422 cells, six days, ATPlite
[3] = Homo sapiens, SU-DHL-4, 48 h, read-out: Luciferase-Assay EC50, uM), SuDHL4-3xBCL6-TK-Luc cells, two days, high dose 10 uM
[4] = read-out: Tumor Growth Inhibition in Karpas-422 (IC50), Karpas422 cells, six days, ATPlite

SMILES | IC50 (Karpas422 cells; [2]) [µM] | Kd (BCL6 BTB domain) [nM] | EC50 [1, 3] [µM] | IC50 (Karpas422 cells; [4]) [µM] | EC50 ([1]; read-out: Luciferase-Assay EC50, SuDHL4-3xBCL6-TK-Luc cells, two days, high dose 10 uM) [µM]
CN1C(C)(C)CN(c2cc(NC(=O)Cn3cc(-c4cc(Cl)c(O)c(C(N)=O)c4)c4c(=O)n(C)cnc43)c(Cl)cn2)CC1(C)C [Compound I-146] | 0.121 | 18.4 | 0.182 | – | –
Cn1cnc2c(c(-c3cc(Cl)c(O)c(C(N)=O)c3)cn2CC(=O)Nc2cc(N3CCOC(C)(C)C3)ncc2Cl)c1=O [Compound I-147] | 0.0995 | 19.6 | 0.144 | – | –
CN(C1CCC(c2cc(NC(=O)Cn3cc(-c4cc(Cl)c(O)c(C(N)=O)c4)c4c(=O)n(C)cnc43)c(Cl)cn2)C1)S(C)(=O)=O (stereo not drawn) [Compound I-148] | 0.541 | 20.9 | 1.31 | – | –
CN(C1CCC(c2cc(NC(=O)Cn3cc(-c4cc(Cl)c(O)c(C(N)=O)c4)c4c(=O)n(C)cnc43)c(Cl)cn2)C1)S(C)(=O)=O (stereo not drawn) [Compound I-149] | – | 16.3 | – | 0.617 | 0.725
COC[C@@H]1COCCN1c1cc(NC(=O)Cn2cc(-c3cc(Cl)c(O)c(C(N)=O)c3)c3c(=O)n(C)cnc32)c(Cl)cn1 [Compound I-150] | 0.124 | 12.8 | 0.184 | – | –
COC[C@H]1COCCN1c1cc(NC(=O)Cn2cc(-c3cc(Cl)c(O)c(C(N)=O)c3)c3c(=O)n(C)cnc32)c(Cl)cn1 [Compound I-151] | 0.144 | 10.6 | 0.168 | – | –
Cn1cnc2c(c(-c3cc(Cl)c(O)c(C(N)=O)c3)cn2CC(=O)Nc2cc(N3Cc4ccncc4C3)ncc2Cl)c1=O [Compound I-152] | 0.134 | 20.7 | 0.168 | – | –
COc1cc(-c2cn(CC(=O)Nc3cc(N4CCOC[C@@H]4C)ncc3Cl)c3ncn(C)c(=O)c23)cc(C(N)=O)c1O [Compound I-153] | 0.176 | 4.14 | 0.313 | – | –
Cn1cnc2c(c(-c3cc(Cl)c(O)c(C(N)=O)c3)cn2CC(=O)Nc2cc(N3CC4CC3CO4)ncc2Cl)c1=O (stereo not drawn) [Compound I-154] | 0.559 | 33.9 | 0.469 | – | –
Cn1cnc2c(c(-c3cc(Cl)c(O)c(C(N)=O)c3)cn2CC(=O)Nc2cc(N3CC4CC4C3)ncc2Cl)c1=O (stereo not drawn) [Compound I-155] | 1.55 | 32.6 | 0.923 | – | –
Cn1cnc2c(c(-c3cc(Cl)c(O)c(C(N)=O)c3)cn2CC(=O)Nc2cc(N3CCCC4(CCOCC4)C3)ncc2Cl)c1=O [Compound I-156] | 0.576 | 49.6 | 0.941 | – | –
C[C@H]1COCCN1c1cc(NC(=O)Cn2cc(-c3cc(F)c(O)c(C(N)=O)c3)c3c(=O)n(C)cnc32)c(Cl)cn1 [Compound I-157] | 0.148 | 6.1 | 0.18 | – | –
Cn1cnc2c(c(-c3cc(F)c(O)c(C(N)=O)c3)cn2CC(=O)Nc2cc(N3C[C@H]4CCO[C@H]4C3)ncc2Cl)c1=O [Compound I-158] | 0.249 | 1.76 | 1.01 | – | –
Cc1nc2cc(Cl)c(NC(=O)Cn3cc(-c4cc(F)c(O)c(C(N)=O)c4)c4c(=O)n(C)cnc43)cc2o1 [Compound I-159] | 0.282 | 47.7 | 0.282 | – | –
Cc1nc2cc(Cl)c(NC(=O)Cn3cc(-c4cc(F)c(O)c(C(N)=O)c4)c4c(=O)n(C)cnc43)cc2s1 [Compound I-160] | 0.507 | 39.1 | 0.396 | – | –
C[C@H]1COCCN1c1cc(NC(=O)Cn2cc(-c3cc(C(N)=O)c(O)cc3F)c3c(=O)n(C)cnc32)c(Cl)cn1 [Compound I-161] | 1.29 | 115 | 0.971 | – | –
Cn1cnc2c(c(-c3cc(C(N)=O)c(O)cc3F)cn2CC(=O)Nc2cc(N3CC4CCC(C3)O4)ncc2Cl)c1=O [Compound I-162] | 0.643 | 84.7 | 0.676 | – | –

SMILES | IC50 (Karpas422 cells; [2]) [µM] | Kd (BCL6 BTB domain) [nM] | EC50 [1, 3] [µM] | IC50 (Karpas422 cells; [4]) [µM] | EC50 ([1]; read-out: Luciferase-Assay EC50, SuDHL4-3xBCL6-TK-Luc cells, two days, high dose 10 uM) [µM]
Cn1cnc2c(c(-c3cc(C(N)=O)c(O)cc3F)cn2CC(=O)Nc2cc(N3C[C@H]4CCO[C@H]4C3)ncc2Cl)c1=O [Compound I-163] | 0.93 | 50.5 | 0.572 | – | –
COC[C@H]1COCCN1c1cc(NC(=O)Cn2cc(-c3cc(Cl)c(O)c(C(N)=O)c3)c3c(=O)[nH]cnc32)c(Cl)cn1 [Compound I-164] | 0.251 | 7.76 | 0.601 | – | –
C[C@@H]1CN(c2cc(NC(=O)Cn3cc(-c4cc(Cl)c(O)c(C(N)=O)c4)c4c(=O)[nH]cnc43)c(Cl)cn2)C[C@H](C)O1 [Compound I-166] | 0.0862 | 15 | 0.184 | – | –
C[C@H]1COCCN1c1cc(NC(=O)Cn2cc(-c3cc(C(N)=O)c(O)c(Cl)c3F)c3c(=O)n(C)cnc32)c(Cl)cn1 [Compound I-167] | 2.34 | 299 | 2.81 | – | –
COc1c(O)c(C(N)=O)cc(-c2cn(CC(=O)Nc3cc(N4CCOC[C@@H]4C)ncc3Cl)c3ncn(C)c(=O)c23)c1F [Compound I-168] | 0.769 | 74 | 1.3 | – | –
Cn1cnc2c(c(-c3cc(C(N)=O)c(O)c(Cl)c3F)cn2CC(=O)Nc2cc(N3CCOCC3)ncc2Cl)c1=O [Compound I-169] | 1.89 | 206 | 1.96 | – | –
C[C@@H]1CN(c2cc(NC(=O)Cn3cc(-c4cc(C(N)=O)c(O)c(Cl)c4F)c4c(=O)n(C)cnc43)c(Cl)cn2)C[C@H](C)O1 [Compound I-170] | – | 369 | 2.14 | 10 | –
COc1c(O)c(C(N)=O)cc(-c2cn(CC(=O)Nc3cc(N4CCOCC4)ncc3Cl)c3ncn(C)c(=O)c23)c1F [Compound I-171] | 1.04 | 99.7 | 1.2 | – | –
COc1c(O)c(C(N)=O)cc(-c2cn(CC(=O)Nc3cc(N4C[C@@H](C)O[C@@H](C)C4)ncc3Cl)c3ncn(C)c(=O)c23)c1F [Compound I-172] | 1.34 | 167 | 0.797 | – | –
Cn1cnc2c(c(-c3cc(Cl)c(O)c(C(N)=O)c3)cn2CC(=O)Nc2cn3ccnc3cc2Cl)c1=O [Compound I-173] | 5.72 | 200 | 44.6 | – | –
Cn1cnc2c(c(-c3cc(Cl)c(O)c(C(N)=O)c3)cn2CC(=O)Nc2cc3nccn3cc2Cl)c1=O [Compound I-174] | 10 | 2950 | 10 | – | –
Cn1cnc2c(c(-c3cc(F)c(O)c(C(N)=O)c3)cn2CC(=O)Nc2cc(N3CC4CCC(C3)O4)ncc2Cl)c1=O [Compound I-176] | 0.137 | 6.06 | 0.239 | – | –
CN1CCOC2(CCN(c3cc(NC(=O)Cn4cc(-c5cc(F)c(O)c(C(N)=O)c5)c5c(=O)n(C)cnc54)c(Cl)cn3)C2)C1 (stereo not drawn) [Compound I-177] | 0.331 | 5.88 | 0.629 | – | –
Cn1cnc2c(c(-c3cc(C(N)=O)c(O)c(F)c3F)cn2CC(=O)Nc2cc(N3CCOCC3)ncc2Cl)c1=O [Compound I-178] | 0.877 | 62.1 | 0.96 | – | –
C[C@@H]1CN(c2cc(NC(=O)Cn3cc(-c4cc(C(N)=O)c(O)c(F)c4F)c4c(=O)n(C)cnc43)c(Cl)cn2)C[C@H](C)O1 [Compound I-179] | 0.681 | 77.7 | 0.612 | – | –
C[C@H]1COCCN1c1cc(NC(=O)Cn2cc(-c3cc(C(N)=O)c(O)c(F)c3F)c3c(=O)n(C)cnc32)c(Cl)cn1 [Compound I-180] | 2.18 | 45.4 | 1.37 | – | –
